This note sets out measurements from patent publication US10004701B2, “Methods and compositions for treating infection” (UNIVERSITY OF ROCHESTER, priority 2012, dated 2018).

Each structure is given as a SMILES string. Structures can show the parent of a compound that is named as a salt. Where two headings read alike, the source gives them in different places.

Assay in all cases: AK assay 384-well format, Prestwick library screening
The subject of assay [1] is P. aeruginosa. The class given is cell-based, Pseudomonas aeruginosa. To be noted: 50 μM final drug concentration; for fold induction at 50 µM: Pseudomonas aeruginosa, 3 h.
Assay [2] concerns E. cloacae. The class given is cell-based, Enterobacter cloacae. Particulars: 50 μM final drug concentration; for fold induction at 50 µM: Enterobacter cloacae, 3 h.
Assay [3] relates to K. pneumoniae. The class given is cell-based, Klebsiella pneumoniae. To be noted: 50 μM final drug concentration; for fold induction at 50 µM: Klebsiella pneumoniae, 3 h.
In assay [4] the test system is E. coli. Format: cell-based, Escherichia coli. Particulars: 50 μM final drug concentration; for fold induction at 50 µM: Escherichia coli, 3 h.
The test system of assay [5] is A. baumannii strain 98-37-09. The class given is cell-based, Acinetobacter baumannii. To be noted: 50 μM final drug concentration; for fold induction at 50 µM: Acinetobacter baumannii, 983709, 3 h.
The test system of assay [6] is E. faecium. Format: cell-based, Enterococcus faecium. To be noted: 50 μM final drug concentration; for fold induction at 50 µM: Enterococcus faecium, 3 h.
Assay [7] relates to S. aureus strain USA300-0114. Format: cell-based, Staphylococcus aureus. To be noted: 50 μM final drug concentration; for fold induction at 50 µM: Staphylococcus aureus, USA300, 3 h.

As to `CCCCC[C@H](O)/C=C/[C@@H]1[C@@H](C/C=C\CCCC(=O)O)[C@@H](O)C[C@H]1O` [Dinoprost trometamol], the fold induction at 50 µM turned out to be 1 in assay [1] (planktonic, cutoff for positive 3-fold increase, read-out: AK-based Prestwick Library Screening Results, P. aeruginosa (fold increase in extracellular AK activity)); 1.1 in assay [2] (planktonic, cutoff for positive 3-fold increase, read-out: AK-based Prestwick Library Screening Results, E. cloacae (fold increase in extracellular AK activity)); 1 in assay [3] (planktonic, cutoff for positive 3-fold increase, read-out: AK-based Prestwick Library Screening Results, K. pneumoniae (fold increase in extracellular AK activity)); 1 in assay [4] (planktonic, cutoff for positive 3-fold increase, read-out: AK-based Prestwick Library Screening Results, E. coli (fold increase in extracellular AK activity)); 1.2 in assay [5] (planktonic, cutoff for positive 3-fold increase, read-out: AK-based Prestwick Library Screening Results, A. baumannii (fold increase in extracellular AK activity)); 1 in assay [6] (planktonic, cutoff for positive 3-fold increase, read-out: AK-based Prestwick Library Screening Results, E. faecium (fold increase in extracellular AK activity)). Further, in assay [7] (planktonic, cutoff for positive 3-fold increase, read-out: AK-based Prestwick Library Screening Results, S. aureus (fold increase in extracellular AK activity)), the fold induction at 50 µM is 1.4.
On to `COC(=O)Nc1nc2ccc(C(=O)c3ccccc3)cc2[nH]1` [Mebendazole], for which the fold induction at 50 µM in assay [1] (planktonic P. aeruginosa, 384-well, cutoff for positive-scoring molecules 3-fold increase, read-out: AK-based Prestwick Library Screening Results: P. aeruginosa (increase in extracellular AK activity)) was 0.8; in assay [2] (planktonic E. cloacae, 384-well, cutoff for positive-scoring molecules 3-fold increase, read-out: AK-based Prestwick Library Screening Results: E. cloacae (increase in extracellular AK activity)) it was 1.2; in assay [3] (planktonic K. pneumoniae, 384-well, cutoff for positive-scoring molecules 3-fold increase, read-out: AK-based Prestwick Library Screening Results: K. pneumoniae (increase in extracellular AK activity)), 0.8; in assay [4] (planktonic E. coli, 384-well, cutoff for positive-scoring molecules 3-fold increase, read-out: AK-based Prestwick Library Screening Results: E. coli (increase in extracellular AK activity)), 0.8; in assay [5] (planktonic A. baumannii, 384-well, cutoff for positive-scoring molecules 3-fold increase, read-out: AK-based Prestwick Library Screening Results: A. baumannii (increase in extracellular AK activity)) it was 0.7; in assay [6] (planktonic E. faecium, 384-well, cutoff for positive-scoring molecules 3-fold increase, read-out: AK-based Prestwick Library Screening Results: E. faecium (increase in extracellular AK activity)) it was 0.9. For the same compound, in assay [7] (planktonic S. aureus, 384-well, cutoff for positive-scoring molecules 3-fold increase, read-out: AK-based Prestwick Library Screening Results: S. aureus (increase in extracellular AK activity)), the fold induction at 50 µM was 0.9.
As for `C[C@]12C=CC(=O)C=C1CC[C@@H]1[C@@H]2[C@@H](O)C[C@@]2(C)[C@H]1CC[C@]2(O)C(=O)CO` [Prednisolone], the fold induction at 50 µM was 1 in assay [1] (384-well format, cutoff for positive-scoring molecules 3-fold increase, read-out: AK-based Prestwick Library Screening Results, P. aeruginosa (increase in extracellular AK activity)); 1.3 in assay [2] (384-well format, cutoff for positive-scoring molecules 3-fold increase, read-out: AK-based Prestwick Library Screening Results, E. cloacae (increase in extracellular AK activity)); 0.7 in assay [3] (384-well format, cutoff for positive-scoring molecules 3-fold increase, read-out: AK-based Prestwick Library Screening Results, K. pneumoniae (increase in extracellular AK activity)); 1 in assay [4] (384-well format, cutoff for positive-scoring molecules 3-fold increase, read-out: AK-based Prestwick Library Screening Results, E. coli (increase in extracellular AK activity)); 1 in assay [5] (384-well format, cutoff for positive-scoring molecules 3-fold increase, read-out: AK-based Prestwick Library Screening Results, A. baumannii (increase in extracellular AK activity)); 1 in assay [6] (384-well format, cutoff for positive-scoring molecules 3-fold increase, read-out: AK-based Prestwick Library Screening Results, E. faecium (increase in extracellular AK activity)). In addition, the fold induction at 50 µM in assay [7] (384-well format, cutoff for positive-scoring molecules 3-fold increase, read-out: AK-based Prestwick Library Screening Results, S. aureus (increase in extracellular AK activity)) was 0.8.
For `COc1ccc2c(c1O)-c1c(OC)c(OC)cc3c1[C@H](C2)N(C)CC3` [Isocorydine (+)], in assay [1] (planktonic P. aeruginosa, cutoff for positive-scoring molecules 3-fold increase), the “AK-based Prestwick Library Screening Results, P. aeruginosa (increase in extracellular AK activity)” value was found to be 0.8. Moreover, in assay [2] (planktonic E. cloacae, cutoff for positive-scoring molecules 3-fold increase), the “AK-based Prestwick Library Screening Results, E. cloacae (increase in extracellular AK activity)” value is on record as 1.3. For the same compound, the “AK-based Prestwick Library Screening Results, K. pneumoniae (increase in extracellular AK activity)” value in assay [3] (planktonic K. pneumoniae, cutoff for positive-scoring molecules 3-fold increase) was found to be 0.7. Besides, in assay [4] (planktonic E. coli, cutoff for positive-scoring molecules 3-fold increase), the “AK-based Prestwick Library Screening Results, E. coli (increase in extracellular AK activity)” value came out at 0.9. Moreover, in assay [5] (planktonic A. baumannii, cutoff for positive-scoring molecules 3-fold increase), the “AK-based Prestwick Library Screening Results, A. baumannii (increase in extracellular AK activity)” value stood at 0.9. Further, the “AK-based Prestwick Library Screening Results, E. faecium (increase in extracellular AK activity)” value in assay [6] (planktonic E. faecium, cutoff for positive-scoring molecules 3-fold increase) is recorded as 0.9. Further, the “AK-based Prestwick Library Screening Results, S. aureus (increase in extracellular AK activity)” value in assay [7] (planktonic S. aureus, cutoff for positive-scoring molecules 3-fold increase) came to 0.7.
Take `O=C(O)c1cccnc1` [Niacin]: the fold induction at 50 µM in assay [1] (planktonic, cutoff for positive-scoring molecules 3-fold increase, read-out: AK-based Prestwick Library Screening Results, P. aeruginosa (fold increase in extracellular AK activity)) turned out to be 0.6; in assay [2] (planktonic, cutoff for positive-scoring molecules 3-fold increase, read-out: AK-based Prestwick Library Screening Results, E. cloacae (fold increase in extracellular AK activity)), 0.7; in assay [3] (planktonic, cutoff for positive-scoring molecules 3-fold increase, read-out: AK-based Prestwick Library Screening Results, K. pneumoniae (fold increase in extracellular AK activity)), 0.5; in assay [4] (planktonic, cutoff for positive-scoring molecules 3-fold increase, read-out: AK-based Prestwick Library Screening Results, E. coli (fold increase in extracellular AK activity)), 0.7; in assay [5] (planktonic, cutoff for positive-scoring molecules 3-fold increase, read-out: AK-based Prestwick Library Screening Results, A. baumannii (fold increase in extracellular AK activity)), 0.6; in assay [6] (planktonic, cutoff for positive-scoring molecules 3-fold increase, read-out: AK-based Prestwick Library Screening Results, E. faecium (fold increase in extracellular AK activity)), 0.9. The fold induction at 50 µM in assay [7] (planktonic, cutoff for positive-scoring molecules 3-fold increase, read-out: AK-based Prestwick Library Screening Results, S. aureus (fold increase in extracellular AK activity)) turned out to be 0.6.
With `O=C(O)CCC(=O)Nc1ccc(S(=O)(=O)Nc2nccs2)cc1` [Succinylsulfathiazole], the fold induction at 50 µM worked out at 1.1 in assay [1] (cutoff for positive-scoring molecules 3-fold increase, read-out: AK-based Prestwick Library Screening Results, P. aeruginosa (fold increase in extracellular AK activity)); 1.4 in assay [2] (cutoff for positive-scoring molecules 3-fold increase, read-out: AK-based Prestwick Library Screening Results, E. cloacae (fold increase in extracellular AK activity)); 1.1 in assay [3] (cutoff for positive-scoring molecules 3-fold increase, read-out: AK-based Prestwick Library Screening Results, K. pneumoniae (fold increase in extracellular AK activity)); 1.4 in assay [4] (cutoff for positive-scoring molecules 3-fold increase, read-out: AK-based Prestwick Library Screening Results, E. coli (fold increase in extracellular AK activity)); 1.3 in assay [5] (cutoff for positive-scoring molecules 3-fold increase, read-out: AK-based Prestwick Library Screening Results, A. baumannii (fold increase in extracellular AK activity)); 1 in assay [6] (cutoff for positive-scoring molecules 3-fold increase, read-out: AK-based Prestwick Library Screening Results, E. faecium (fold increase in extracellular AK activity)). In assay [7] (cutoff for positive-scoring molecules 3-fold increase, read-out: AK-based Prestwick Library Screening Results, S. aureus (fold increase in extracellular AK activity)), the fold induction at 50 µM was 1.3.
For the compound `CCCNC(C)C(=O)Nc1c(C)csc1C(=O)OC` (stereo not shown) [Articaine hydrochloride], the fold induction at 50 µM amounted to 1 in assay [1] (planktonic P. aeruginosa, positive cutoff 3-fold increase, read-out: AK-based Prestwick library screening result, P. aeruginosa (fold increase in extracellular AK activity)); 1.6 in assay [2] (planktonic E. cloacae, positive cutoff 3-fold increase, read-out: AK-based Prestwick library screening result, E. cloacae (fold increase in extracellular AK activity)); 1.1 in assay [3] (planktonic K. pneumoniae, positive cutoff 3-fold increase, read-out: AK-based Prestwick library screening result, K. pneumoniae (fold increase in extracellular AK activity)); 1.1 in assay [4] (planktonic E. coli, positive cutoff 3-fold increase, read-out: AK-based Prestwick library screening result, E. coli (fold increase in extracellular AK activity)); 1.2 in assay [5] (planktonic A. baumannii, positive cutoff 3-fold increase, read-out: AK-based Prestwick library screening result, A. baumannii (fold increase in extracellular AK activity)); 1.2 in assay [6] (planktonic E. faecium, positive cutoff 3-fold increase, read-out: AK-based Prestwick library screening result, E. faecium (fold increase in extracellular AK activity)). Besides, the fold induction at 50 µM in assay [7] (planktonic S. aureus, positive cutoff 3-fold increase, read-out: AK-based Prestwick library screening result, S. aureus (fold increase in extracellular AK activity)) was 1.1.
